In patent US12679878B2, “CRF2 receptor agonists and their use in therapy” (SANOFI, priority 2020, dated 2026):
Like-named read-outs stand apart in the source and are kept apart here. Starred links: 1 amine or outer side, 2 acyl side, 3 side chain; linkers in the order of their positions; H or OH if unused. Non-standard residues stand in square brackets, D forms with d. Residues, ends and D or L forms follow the SMILES beside them. Groups on a side chain read outwards from the residue. No end group written: not given here. *: point of attachment. C18 diacid = O=C(O)CCCCCCCCCCCCCCCCC(=O)*; γGlu = O=C(O)[C@H](CCC(=O)[*:2])N[*:1]; Palmitoyl = CCCCCCCCCCCCCCCC(=O)*; AEEA = NCCOCCOCC(=O)O; Aib = CC(C)(N)C(=O)O

T1: human CRF2α receptor (Homo sapiens, UniProt Q13324)
T1 construct: expressed in transfected cells; host or cells: TeloHEAC
T1 sequence (Q13324 1-411): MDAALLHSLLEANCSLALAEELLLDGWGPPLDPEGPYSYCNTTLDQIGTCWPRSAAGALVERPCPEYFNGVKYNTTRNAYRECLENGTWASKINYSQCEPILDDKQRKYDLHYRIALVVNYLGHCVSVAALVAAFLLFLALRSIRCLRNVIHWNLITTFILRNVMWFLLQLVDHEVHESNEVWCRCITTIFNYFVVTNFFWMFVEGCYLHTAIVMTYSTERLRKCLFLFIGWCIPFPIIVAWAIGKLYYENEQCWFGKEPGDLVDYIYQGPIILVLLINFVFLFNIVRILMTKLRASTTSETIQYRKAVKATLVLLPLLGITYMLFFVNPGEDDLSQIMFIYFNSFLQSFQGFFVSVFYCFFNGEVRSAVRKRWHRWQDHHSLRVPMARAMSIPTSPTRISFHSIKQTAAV

T2: CRF1R receptor (Homo sapiens, UniProt P34998)
T2 construct: host or cells: CHO-K1 clone 2
T2 sequence (P34998 24-415): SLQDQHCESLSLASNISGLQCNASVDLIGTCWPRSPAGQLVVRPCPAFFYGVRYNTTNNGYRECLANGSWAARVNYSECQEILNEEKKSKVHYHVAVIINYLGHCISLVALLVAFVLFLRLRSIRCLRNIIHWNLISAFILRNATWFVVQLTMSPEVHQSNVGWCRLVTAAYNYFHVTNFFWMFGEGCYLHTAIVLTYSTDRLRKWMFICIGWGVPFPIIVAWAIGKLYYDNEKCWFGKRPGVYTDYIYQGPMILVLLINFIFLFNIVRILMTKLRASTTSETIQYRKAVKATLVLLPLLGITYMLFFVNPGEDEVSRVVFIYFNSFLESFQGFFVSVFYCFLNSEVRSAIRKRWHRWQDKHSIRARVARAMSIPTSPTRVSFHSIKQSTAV

T3: CRF1R receptor (anti-target) (UniProt P34998 24-415, limits assumed)
T3 sequence (looked up): T2 sequence (P34998 24-415)

B1: peptide of SEQ ID NO: 220 (peptide)
peptide: IVLSLD[dV]PIGLK([γGlu-Palmitoyl])QILLKQERQKK[Aib]RQQAETNKRILERV-NH2
modifications: N-terminus assumed
SMILES: CCCCCCCCCCCCCCCC(=O)N[C@@H](CCC(=O)NCCCC[C@H](NC(=O)[C@H](CC(C)C)NC(=O)CNC(=O)[C@@H](NC(=O)[C@@H]1CCCN1C(=O)[C@H](NC(=O)[C@H](CC(=O)O)NC(=O)[C@H](CC(C)C)NC(=O)[C@H](CO)NC(=O)[C@H](CC(C)C)NC(=O)[C@@H](NC(=O)[C@@H](N)[C@@H](C)CC)C(C)C)C(C)C)[C@@H](C)CC)C(=O)N[C@@H](CCC(N)=O)C(=O)N[C@H](C(=O)N[C@@H](CC(C)C)C(=O)N[C@@H](CC(C)C)C(=O)N[C@@H](CCCCN)C(=O)N[C@@H](CCC(N)=O)C(=O)N[C@@H](CCC(=O)O)C(=O)N[C@@H](CCCNC(=N)N)C(=O)N[C@@H](CCC(N)=O)C(=O)N[C@@H](CCCCN)C(=O)N[C@@H](CCCCN)C(=O)NC(C)(C)C(=O)N[C@@H](CCCNC(=N)N)C(=O)N[C@@H](CCC(N)=O)C(=O)N[C@@H](CCC(N)=O)C(=O)N[C@@H](C)C(=O)N[C@@H](CCC(=O)O)C(=O)N[C@H](C(=O)N[C@@H](CC(N)=O)C(=O)N[C@@H](CCCCN)C(=O)N[C@@H](CCCNC(=N)N)C(=O)N[C@H](C(=O)N[C@@H](CC(C)C)C(=O)N[C@@H](CCC(=O)O)C(=O)N[C@@H](CCCNC(=N)N)C(=O)N[C@H](C(N)=O)C(C)C)[C@@H](C)CC)[C@@H](C)O)[C@@H](C)CC)C(=O)O

Key:
[1] = Solubility in buffer systems by UPLC-UV (Example 13); type: physicochemical; settings: pH 7.4, Solubility in Buffer C [mg/ml]
Method in brief: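 The supernatant was diluted 1:10 and quantified by UPLC-UV peak area against a reference standard curve, correcting for sequence-based extinction coefficients.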

[2] = Pharmacokinetic properties in rats, i.v. or s.c. (Example 16); type: in vivo, SD rat; settings: male, plasma, Rat; for AUC(0-t) / Cmax / half-life: Sprague-Dawley (SD)
Procedure: The pharmacokinetic properties of exemplary peptides SEQ ID NO: 35 and SEQ ID NO: 24 were assessed in mice and rats.
The test compound was administered in a suitable buffer system (PBS buffer solution at pH 7.4, or DPBS solution) at concentrations of 0.05, 0.1, 0.5 or 1 mg/ml depending on the dose, species and administration volume. Female C57BI/6 mice and male SD rate were dosed 0.1 mg/kg or 0.3 mg/kg intravenously or subcutaneously. The animals were sacrificed, and blood samples were collected after 0.08, 0.25, 0.5, 1, 2, 4, 8, 24, 32, and 48 hours post-intravenous administration and 0.25, 0.5, 1, 2, 4, 8, 24, 32, and 48 hours post-subcutaneous administration, respectively. Plasma samples were analysed after protein precipitation via liquid chromatography mass spectrometry (LC/MS). Pharmacokinetic parameters and half-life were calculated using Phoenix-WinNonlin 8.1 using a non-compartmental model and linear trapezoidal interpolation calculation.

[3] = system: rat CRF2R α receptor; experiment: cAMP agonism at rat CRF2R α receptor in A7R5 rat aortic smooth muscle cells (Example 8); type: cell-based; settings: cAMP HTRF, A7R5 rat aortic smooth muscle cell line, 0% HSA
Method in brief: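 Thawed cryopreserved A7R5 cells in HBSS/20 mM HEPES (0 or 0.1% HSA) with 2 mM IBMX, 2000 cells/well, were exposed to compound for 30 min at room temperature. cAMP was read by HTRF (665/620 nm ratio) after 1 h with lysis reagents. Activity was normalised to 1000 nM urocortin 2 as 100%, and EC50 was taken as the concentration giving 50% of maximal activation.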

[4] = target: T1, human CRF2α receptor; experiment: cAMP agonism at human CRF2 α receptor in TeloHEAC cells (Example 7); type: cell-based; settings: cAMP HTRF, TeloHEAC cells stably expressing human CRF2 α
Method in brief: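 Percent activation was referenced to 1000 nM UCN2 (100%), and EC50 values taken as concentrations giving half of maximal response. The read-out was a homogeneous time-resolved fluorescence cAMP kit, fluorescence ratio 665/620 nm. Thawed cells (2000/well) saw compound for 30 min at RT in buffer with 2 mM IBMX and 0%/0.1% HSA.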

[5] = target: T2, CRF1R receptor; experiment: cAMP activity at anti-target CRF1R, CRF1R-overexpression CHO cell line (Example 9); type: cell-based; settings: CRF1R-overexpression CHO cell line
Method in brief: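 cAMP accumulation was read by HTRF after 30 min at room temperature of compound treatment. Cells were cryopreserved CHO cells overexpressing CRF1R, plated at 2000/well in IBMX (2 mM)-containing HBSS/HEPES buffer with 0 or 0.1% HSA. Activity was normalized to 1000 nM UCN2 as 100%.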

[6] = Chemical stability, purity loss by UPLC-UV after 28 days at 40° C. vs 5° C., pH 4.5 acetate buffer (Example 12); type: physicochemical; settings: 28 days 40° C. vs 5° C.; pH 4.5, 20 mM acetate buffer; 300 μM
Procedure: The chemical stability of the compounds was assessed by storing the compounds under various conditions and then determining the loss of purity by UPLC-UV.
Prior to measuring the chemical stability of a batch of test compound, the purity of the compound was determined through UPLC/MS. For stability testing the target concentration was 300 μM pure compound. Therefore, solutions from solid samples were prepared in a pH 4.5, 20 mM acetate buffer system with a concentration of 300 μM compound based on the previously determined % purity:
At the starting point, UPLC-UV was performed by injection of 2 μl of the undiluted sample. Aliquots were then stored for 28 days at temperatures of 5 and 40° C. […] Then 2 μl samples of the undiluted supernatant were analysed with UPLC-UV. The chemical stability was calculated by the equation: [(purity after 28 days at 5° C.)−(purity after 28 days at 40° C.)]/(purity after 28 days at 5° C.)]×100%. The purity was calculated as: [(peak area compound)/(total peak area)]×100%.

[7] = target: T3, CRF1R receptor (anti-target); experiment: cell-based or functional assay
[8] = target: human corticotropin-releasing factor 2α (CRF2α receptor) (human), Q13324; experiment: cell-based or functional assay
[9] = target: human corticotropin-releasing factor 2α receptor (CRF2α receptor) (human), Q13324; experiment: cell-based or functional assay
[10] = 0% HSA, read-out: EC50 [nM], 0% HSA

Molecule | solubility at 1 h [1] | clearance ([2]; SD, iv, 0.1 mg/kg i.v., read-out: CI (converted)) | bioavailability ([2]; SD, sc, 0.3 mg/kg s.c.) | AUC(0-t) ([2]; iv, 0.1 mg/kg i.v.) | Cmax ([2]; iv, 0.1 mg/kg i.v.) | half-life ([2]; iv, 0.1 mg/kg i.v.) | AUC(0-t) ([2]; sc, 0.3 mg/kg s.c.) | Cmax ([2]; sc, 0.3 mg/kg s.c.) | half-life ([2]; sc, 0.3 mg/kg s.c.) | EC50 [3] | EC50 [4, 10] | EC50 ([5]; 0% HSA) | Emax ([5]; read-out: Emax (%)) | EC50 ([4]; 0.1% HSA, read-out: EC50 [nM], 0.1% HSA) | Relative purity loss [%] [6] | CRF1/CRF2 ratio (of EC50) [7] | CRF1 EC50 (cAMP, HTRF) [7] | EC50 [nM], 0% HSA (cAMP, HTRF) [8] | CRF2 EC50 (cAMP, HTRF) [9]
CC[C@H](C)[C@H](N)C(=O)N[C@H](C(=O)N[C@@H](CC(C)C)C(=O)N[C@@H](CO)C(=O)N[C@@H](CC(C)C)C(=O)N[C@@H](CC(=O)O)C(=O)N[C@@H](C(=O)N1CCC[C@H]1C(=O)N[C@H](C(=O)N[C@@H](CCCCN)C(=O)N[C@@H](CC(C)C)C(=O)N[C@@H](CCCCNC(=O)COCCOCCNC(=O)COCCOCCNC(=O)CC[C@H](NC(=O)CCCCCCCCCCCCCCCCC(=O)O)C(=O)O)C(=O)N[C@@H](CCC(N)=O)C(=O)N[C@@H](CCCCN)C(=O)N[C@@H](CC(C)C)C(=O)N[C@@H](CC(C)C)C(=O)N[C@@H](CCCCN)C(=O)N[C@@H](CCC(N)=O)C(=O)N[C@@H](CCC(=O)O)C(=O)N[C@@H](CCCNC(=N)N)C(=O)N[C@@H](CCC(N)=O)C(=O)N[C@@H](CCCNC(=N)N)C(=O)N[C@@H](CCCCN)C(=O)N[C@@H](CCC(=O)O)C(=O)N[C@@H](CCCNC(=N)N)C(=O)N[C@@H](CCC(=O)O)C(=O)N[C@@H](CCC(N)=O)C(=O)N[C@@H](C)C(=O)N[C@@H](CCC(=O)O)C(=O)N[C@@H](CCCCN)C(=O)N[C@@H](CC(N)=O)C(=O)N[C@@H](CCCCN)C(=O)N[C@@H](CCCNC(=N)N)C(=O)N[C@H](C(=O)N[C@@H](CC(C)C)C(=O)N[C@@H](CCC(=O)O)C(=O)N[C@@H](CCCNC(=N)N)C(=O)N[C@H](C(N)=O)C(C)C)[C@@H](C)CC)[C@@H](C)O)C(C)C)C(C)C [compound 24] (H-IVLSLD[dV]PTKLK([AEEA-AEEA-γGlu-C18 diacid])QKLLKQERQRKEREQAEKNKRILERV-NH2; N-terminus assumed) | > 10.1 mg/mL | 0.43 mL/min/kg | 24% | 3790 ng·h/mL | 1480 ng/mL | 4.81 h | 2610 ng·h/mL | 171 ng/mL | 5.51 h | 4.94 nM | 6.95 nM | > 1000 nM | 1.48% |  |  |  |  |  | 
CC[C@H](C)[C@H](N)C(=O)N[C@H](C(=O)N[C@@H](CC(C)C)C(=O)N[C@@H](CO)C(=O)N[C@@H](CC(C)C)C(=O)N[C@@H](CC(=O)O)C(=O)N[C@@H](C(=O)N1CCC[C@H]1C(=O)N[C@H](C(=O)N[C@@H](CCCCN)C(=O)N[C@@H](CC(C)C)C(=O)N[C@@H](CCCCNC(=O)COCCOCCNC(=O)COCCOCCNC(=O)CC[C@H](NC(=O)CCCCCCCCCCCCCCCCC(=O)O)C(=O)O)C(=O)N[C@@H](CCC(N)=O)C(=O)N[C@H](C(=O)N[C@@H](CC(C)C)C(=O)N[C@@H](CC(C)C)C(=O)N[C@@H](CCC(=O)O)C(=O)N[C@@H](CCC(N)=O)C(=O)N[C@@H](C)C(=O)N[C@@H](CCCNC(=N)N)C(=O)N[C@@H](CCC(N)=O)C(=O)N[C@@H](CCCCN)C(=O)NC(C)(C)C(=O)N[C@@H](CCC(N)=O)C(=O)N[C@@H](CCCNC(=N)N)C(=O)N[C@@H](C)C(=O)N[C@@H](CCC(N)=O)C(=O)N[C@@H](C)C(=O)N[C@@H](CCC(=O)O)C(=O)N[C@@H](CCCCN)C(=O)N[C@@H](CC(N)=O)C(=O)N[C@@H](CCCCN)C(=O)N[C@@H](CCCNC(=N)N)C(=O)N[C@H](C(=O)N[C@@H](CC(C)C)C(=O)N[C@@H](CCC(=O)O)C(=O)N[C@@H](CCCNC(=N)N)C(=O)N[C@H](C(N)=O)C(C)C)[C@@H](C)CC)[C@@H](C)CC)[C@@H](C)CC)C(C)C)C(C)C [compound 140] (H-IVLSLD[dV]PIKLK([AEEA-AEEA-γGlu-C18 diacid])QILLEQARQK[Aib]QRAQAEKNKRILERV-NH2; N-terminus assumed) |  |  |  |  |  |  |  |  |  | 0.1 nM | 0.04 nM |  |  | 1.27 nM | 4.30% |  |  |  | 
B1 |  |  |  |  |  |  |  |  |  |  |  |  |  |  |  | 6 | 8.91 nM | 1.48 nM | 1.48 nM
